# Assay results taken from US8410161B2, “Thioxanthone ring system derivatives” (National Defense Medical Center, priority 2010, dated 2013).
# Assays:
# Assay type in all cases: cell-based
# [1] = test system: A control cell lines; test: MTT assay, A control cell lines (lung cancer cell)
# Description: Please refer to Table 1 and FIGS. 4A-4C. According to a MTT assay (Table 1), various cell viabilities of the A control cell lines can be obtained and illustrated in FIG. 4A while the compounds No. 2˜30 are used to treat A control cell lines, wherein A control cell lines are lung cancer cell.
# [2] = test system: A3 cell lines; test: MTT assay, A3 cell lines (lung cancer stem cell)
# Description: Please to FIG. 4B, various cell viabilities of the A3 cell lines can be obtained through the MTT assay and illustrated in FIG. 4B while the compounds No. 1˜30 are used to treat A3 cell lines, wherein A3 cell lines are lung cancer stem cell.
# [3] = MTT assay, HEL299 fibroblast; conditions: human
# Description: Please refer to FIG. 4C, various cell viabilities of the HEL299 cell lines can be obtained through the MTT assay while the compounds No. 1˜30 are used to treat HEL299 cell lines, wherein HEL299 cell lines are fibroblast.
# [4] = test system: CCRF-CEM; test: NCI in vitro DTP human cell line screen, CCRF-CEM; conditions: Leukemia, 1.00E−5 Molar
# Method: (§1) Then, a cell toxicity assay of the cancer lines made by National Cancer Institute will be discussed as follows. The cell toxicity assay is performed by choosing ten compounds (existing certification numbers) from the 59 compounds disclosed in the present invention first.
# [5] = test system: HL-60(TB); test: NCI in vitro DTP human cell line screen, HL-60(TB); conditions: Leukemia, 1.00E−5 Molar
# Method: as §1
# [6] = test system: K562; test: NCI in vitro DTP human cell line screen, K562; conditions: Leukemia, 1.00E−5 Molar
# Method: as §1
# [7] = test system: MOLT-4; test: NCI in vitro DTP human cell line screen, MOLT-4; conditions: Leukemia, 1.00E−5 Molar
# Method: as §1
# [8] = test system: RPMI-8226; test: NCI in vitro DTP human cell line screen, RPMI-8226; conditions: Leukemia, 1.00E−5 Molar
# Method: as §1
# [9] = test system: SR; test: NCI in vitro DTP human cell line screen, SR; conditions: Leukemia, 1.00E−5 Molar
# Method: as §1
# [10] = test system: EKVX; test: NCI in vitro DTP human cell line screen, EKVX; conditions: Non-Small Cell Lung Cancer, 1.00E−5 Molar
# Method: as §1
# [11] = test system: HOP-92; test: NCI in vitro DTP human cell line screen, HOP-92; conditions: Non-Small Cell Lung Cancer, 1.00E−5 Molar
# Method: as §1
# [12] = test system: NCI-H226; test: NCI in vitro DTP human cell line screen, NCI-H226; conditions: Non-Small Cell Lung Cancer, 1.00E−5 Molar
# Method: as §1
# [13] = test system: NCI-H23; test: NCI in vitro DTP human cell line screen, NCI-H23; conditions: Non-Small Cell Lung Cancer, 1.00E−5 Molar
# Method: as §1
# [14] = test system: NCI-H322M; test: NCI in vitro DTP human cell line screen, NCI-H322M; conditions: Non-Small Cell Lung Cancer, 1.00E−5 Molar
# Method: as §1
# [15] = test system: NCI-H460; test: NCI in vitro DTP human cell line screen, NCI-H460; conditions: Non-Small Cell Lung Cancer, 1.00E−5 Molar
# Method: as §1
# [16] = test system: NCI-H522; test: NCI in vitro DTP human cell line screen, NCI-H522; conditions: Non-Small Cell Lung Cancer, 1.00E−5 Molar
# Method: as §1
# [17] = test system: COLO 205; test: NCI in vitro DTP human cell line screen, COLO 205; conditions: Colon Cancer, 1.00E−5 Molar
# Method: as §1
# [18] = test system: HCC-2998; test: NCI in vitro DTP human cell line screen, HCC-2998; conditions: Colon Cancer, 1.00E−5 Molar
# Method: as §1
# [19] = test system: HCT-116; test: NCI in vitro DTP human cell line screen, HCT-116; conditions: Colon Cancer, 1.00E−5 Molar
# Method: as §1
# [20] = test system: HCT-15; test: NCI in vitro DTP human cell line screen, HCT-15; conditions: Colon Cancer, 1.00E−5 Molar
# Method: as §1
# [21] = test system: HT29; test: NCI in vitro DTP human cell line screen, HT29; conditions: Colon Cancer, 1.00E−5 Molar
# Method: as §1
# [22] = test system: KM12; test: NCI in vitro DTP human cell line screen, KM12; conditions: Colon Cancer, 1.00E−5 Molar
# Method: as §1
# [23] = test system: SW-620; test: NCI in vitro DTP human cell line screen, SW-620; conditions: Colon Cancer, 1.00E−5 Molar
# Method: as §1
# [24] = test system: SF-268; test: NCI in vitro DTP human cell line screen, SF-268; conditions: CNS Cancer, 1.00E−5 Molar
# Method: as §1
# [25] = test system: SF-295; test: NCI in vitro DTP human cell line screen, SF-295; conditions: CNS Cancer, 1.00E−5 Molar
# Method: as §1
# [26] = test system: SF-539; test: NCI in vitro DTP human cell line screen, SF-539; conditions: CNS Cancer, 1.00E−5 Molar
# Method: as §1
# [27] = test system: SNB-19; test: NCI in vitro DTP human cell line screen, SNB-19; conditions: CNS Cancer, 1.00E−5 Molar
# Method: as §1
# [28] = test system: SNB-75; test: NCI in vitro DTP human cell line screen, SNB-75; conditions: CNS Cancer, 1.00E−5 Molar
# Method: as §1
# [29] = test system: U251; test: NCI in vitro DTP human cell line screen, U251; conditions: CNS Cancer, 1.00E−5 Molar
# Method: as §1
# [30] = test system: LOX IMVI; test: NCI in vitro DTP human cell line screen, LOX IMVI; conditions: Melanoma, 1.00E−5 Molar
# Method: as §1
# [31] = test system: MALME-3M; test: NCI in vitro DTP human cell line screen, MALME-3M; conditions: Melanoma, 1.00E−5 Molar
# Method: as §1
smiles,measurement,setting,value
"O=c1c2ccccc2sc2c(Cl)c(Sc3ccc(Cl)cc3)ccc12 [No. 29, 4-Chloro-3-(4-chlorophenylthio)-9H-thioxanthen-9-one]",cell viabilities of A control cell lines (MTT assay),[1],70.1 ± 2.68%
same,cell viabilities of A3 cell lines (MTT assay),[2],70.3 ± 5.31%
same,viability,[3],74.5 ± 9.39%
same,Growth Percent,[4],67.42%
same,Growth Percent,[5],105.61%
same,Growth Percent,[6],96.64%
same,Growth Percent,[7],94.77%
same,Growth Percent,[8],88.56%
same,Growth Percent,[9],51.19%
same,Growth Percent,[10],73.14%
same,Growth Percent,[11],49.52%
same,Growth Percent,[12],81.05%
same,Growth Percent,[13],83.03%
same,Growth Percent,[14],56.53%
same,Growth Percent,[15],40.25%
same,Growth Percent,[16],80.48%
same,Growth Percent,[17],87.02%
same,Growth Percent,[18],98.92%
same,Growth Percent,[19],54.33%
same,Growth Percent,[20],85.15%
same,Growth Percent,[21],86.36%
same,Growth Percent,[22],73.79%
same,Growth Percent,[23],75.00%
same,Growth Percent,[24],81.14%
same,Growth Percent,[25],57.86%
same,Growth Percent,[26],86.15%
same,Growth Percent,[27],74.97%
same,Growth Percent,[28],76.16%
same,Growth Percent,[29],47.77%
same,Growth Percent,[30],63.24%
same,Growth Percent,[31],76.90%
